Test results taken from paper PMC9106635, “Stimulation of the atypical chemokine receptor 3 (ACKR3) by a small-molecule agonist attenuates fibrosis in a preclinical liver but not lung injury model” (Cellular and Molecular Life Sciences: CMLS, 2022).

What was measured:
[1] = test system: fibrosis-related genes (liver mRNA); assay: nCounter analysis of 52 fibrosis-related genes in liver RNA; assay type: in vivo, mouse
Protocol: Total RNA was prepared from snap-frozen liver tissue (the lateral and medial right lobes and the caudate lobe; Supplementary Figure S1a) or lung tissue (cranial right lobe; Supplementary Figure S1b) after homogenization on ice in TRIZol. For quantitative qRT-PCR, cDNA was made from 0.5 μg of RNA using the GoScript reverse transcription system (Promega) according to the manufacturer's protocol. QRT-PCR was performed (for 40 cycles) with the Quantstudio3 Applied Biosystems (ABI) system using Sybr green (ABI) followed by melting curve analysis. Expression was calculated using the delta threshold cycle (ΔCT) method with Gapdh as reference gene (previously validated as stable house-keeping gene in the CCl4 model and in the bleomycin model, current study, not shown). Forward (F) and reverse (R) primer sequences were (5'-3'): […]; Col1a1: [NT]; Ackr3: [NT]; Cxcr4: [NT]; Golm1: [NT]; Lgals3: [NT]; Unc93b1: [NT]; Slc15a3: [NT]; Sec24d: [NT]; Cxcl10: [NT]; and […] Data are expressed as mean ± sem. For NanoString nCounter (NanoString, USA) analysis on liver RNA, a custom-designed panel of 52 fibrosis-related probes was used (the Nanostring probe list is shown in Supplementary Table 1). 100-500 ng of total RNA was hybridized according to the manufacturer's instructions. Data were normalized by scaling to a panel of four housekeeping genes (i.e., Hprt1, Actb, Ldh, Tbp; probes are listed in Supplementary Table 1) with a coefficient of variation of < 5% between conditions used for comparison. The scaled counts were base log2-transformed and data were expressed as fold-change versus the reference condition (CCl4 + 23% HPBCD). […] The resulting P-values were corrected for multiple testing with Benjamini-Hochberg to control the false discovery rate. P < 0.05 was considered as significant.

[2] = test system: fibrosis-associated genes (lung mRNA); assay: qRT-PCR of fibrosis-associated genes in lung tissue; assay type: in vivo, mouse
Protocol: Total RNA was prepared from snap-frozen liver tissue (the lateral and medial right lobes and the caudate lobe; Supplementary Figure S1a) or lung tissue (cranial right lobe; Supplementary Figure S1b) after homogenization on ice in TRIZol. For quantitative qRT-PCR, cDNA was made from 0.5 μg of RNA using the GoScript reverse transcription system (Promega) according to the manufacturer’s protocol. QRT-PCR was performed (for 40 cycles) with the Quantstudio3 Applied Biosystems (ABI) system using Sybr green (ABI) followed by melting curve analysis. Expression was calculated using the delta threshold cycle (ΔCT) method with Gapdh as reference gene (previously validated as stable house-keeping gene in the CCl4 model and in the bleomycin model, current study, not shown). Forward (F) and reverse (R) primer sequences were (5’-3’): Gapdh: F: ccgcatcttcttgtgcagt, R: […]; Col1a1: F: […], R: […]; Ackr3: F: […], R: […]; Cxcr4: F: […], R: […]; Golm1: F: […], R: […]; Lgals3: F: […], R: […]; Unc93b1: F: […], R: […]; Slc15a3: F: […], R: […]; Sec24d: F: […], R: […]; Cxcl10: F: […], R: […]; and Clec4n: F: […], R: […]. Data are expressed as mean ± sem. […] The scaled counts were base log2-transformed and data were expressed as fold-change versus the reference condition (CCl4 + 23% HPBCD). […]

[3] = test system: isoproterenol-induced cardiac fibrosis in mice; design: method as in PMID 29627981; conditions: isoproterenol-induced cardiac injury; cited from earlier work
[4] = liver d28, CCl4 + compound 18a vs. CCl4 + 23% HPBCD

CCc1ccn2ccnc2c1N1CCCN(C(CC(N)=O)C2CCN(C(=O)C3CC4CCC3O4)CC2)CC1 (stereo not shown) [compound 18a]
number of the 52 fibrosis-related genes with significantly affected expression ([1]; CCl4-challenged livers, day 28): 8 | Fold change Adamts2 mRNA [1, 4]: 1.15 | Fold change Anxa3 mRNA [1, 4]: 0.85 | Fold change Arhgap25 mRNA [1, 4]: 0.87 | Fold change Arl11 mRNA [1, 4]: 1.09 | Fold change Arpc1b mRNA [1, 4]: 1.04 | Fold change Axl mRNA [1, 4]: 0.96 | Fold change C1qb mRNA [1, 4]: 0.92 | Fold change Capg mRNA [1, 4]: 0.85 | Fold change Ccr2 mRNA [1, 4]: 0.96 | Fold change Ccr5 mRNA [1, 4]: 0.86 | Fold change Ccr9 mRNA [1, 4]: 1.04 | Fold change Cd68 mRNA [1, 4]: 0.90 | Fold change Cd86 mRNA [1, 4]: 0.88 | Fold change Clec4n mRNA [1, 4]: 0.77 | Fold change Clec7a mRNA [1, 4]: 1.13 | Fold change Col3a1 mRNA [1, 4]: 1.40 | Fold change Col4a2 mRNA [1, 4]: 0.92 | Fold change Col5a1 mRNA [1, 4]: 0.84 | Fold change Cxcl10 mRNA [1, 4]: 0.74 | Fold change Cxcl16 mRNA [1, 4]: 1.03 | Fold change Eln mRNA [1, 4]: 1.25 | Fold change Enc1 mRNA [1, 4]: 1.09 | Fold change Fxyd5 mRNA [1, 4]: 0.96 | Fold change Gdf15 mRNA [1, 4]: 1.12 | Fold change Golm1 mRNA [1, 4]: 1.46 | Fold change Il1rn mRNA [1, 4]: 0.76 | Fold change Laptm5 mRNA [1, 4]: 0.90 | Fold change Lgals3 mRNA [1, 4]: 0.58 | Fold change Lilrb4 mRNA [1, 4]: 0.94 | Fold change Lox mRNA [1, 4]: 1.24 | Fold change Loxl2 mRNA [1, 4]: 1.01 | Fold change Ly86 mRNA [1, 4]: 1.15 | Fold change Mmp9 mRNA [1, 4]: 1.13 | Fold change Ms4a6a mRNA [1, 4]: 1.20 | Fold change Myo1f mRNA [1, 4]: 0.90 | Fold change Nckap1l mRNA [1, 4]: 0.97 | Fold change Pld4 mRNA [1, 4]: 0.93 | Fold change Plod2 mRNA [1, 4]: 1.13 | Fold change Rassf4 mRNA [1, 4]: 0.93 | Fold change Sdcbp mRNA [1, 4]: 1.08 | Fold change Sec24d mRNA [1, 4]: 1.22 | Fold change Serpine1 mRNA [1, 4]: 0.22 | Fold change Sla mRNA [1, 4]: 1.00 | Fold change Slc11a1 mRNA [1, 4]: 0.88 | Fold change Slc15a3 mRNA [1, 4]: 0.81 | Fold change Tgfb1 mRNA [1, 4]: 0.90 | Fold change Thbs2 mRNA [1, 4]: 1.03 | Fold change Timp1 mRNA [1, 4]: 1.09 | Fold change Tnc mRNA [1, 4]: 0.84 | Fold change Trem2 mRNA [1, 4]: 1.44 | Fold change Unc93b1 mRNA [1, 4]: 0.81 | Lgals3 expression in lung tissue ([2]; bleomycin model, day 21, qRT-PCR): similarly lowered | number of these 8 genes similarly affected in lung ([2]; bleomycin-exposed lungs, day 21): 1 | cardiac fibrosis [3]: protect mice from cardiac fibrosis
